Source: ChEMBL document CHEMBL3102714 (J Med Chem, 2013)
Calls of active or inactive are those of the source. The calls are words filed in the database; no cut-off is given here. Where a SMILES comes first, the peptide text is derived from it.

What was measured:
[1] = molecular target: Nicotinic acetylcholine receptor alpha9/alpha10 (Rattus norvegicus, UniProt P43144+Q9JLB5); assay: Inhibition of recombinant rat alpha9alpha10 nAChR expressed in Xenopus laevis oocytes assessed as inhibition of ACh-induced current by voltage clamp electrophysiology method; format: cell-based
[2] = molecular target: T1, Neuronal acetylcholine receptor; alpha9/alpha10 (Homo sapiens, UniProt Q9GZZ6+Q9UGM1); assay: Inhibition of human alpha9alpha10 nAChR; format: protein-complex assay
T1 sequence (Q9UGM1 whole entry): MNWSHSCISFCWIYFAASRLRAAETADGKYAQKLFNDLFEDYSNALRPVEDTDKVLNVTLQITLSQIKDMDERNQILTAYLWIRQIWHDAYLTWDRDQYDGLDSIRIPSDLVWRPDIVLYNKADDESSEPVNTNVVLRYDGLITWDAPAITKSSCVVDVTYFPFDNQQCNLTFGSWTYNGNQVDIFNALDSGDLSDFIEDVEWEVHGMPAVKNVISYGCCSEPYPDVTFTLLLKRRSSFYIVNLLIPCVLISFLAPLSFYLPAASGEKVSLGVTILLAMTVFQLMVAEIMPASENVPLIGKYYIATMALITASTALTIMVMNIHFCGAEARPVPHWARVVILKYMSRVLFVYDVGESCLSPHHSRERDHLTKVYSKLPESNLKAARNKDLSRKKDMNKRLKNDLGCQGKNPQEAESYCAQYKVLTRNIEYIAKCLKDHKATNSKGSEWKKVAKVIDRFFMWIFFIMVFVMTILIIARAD
T1 sequence (Q9GZZ6 whole entry): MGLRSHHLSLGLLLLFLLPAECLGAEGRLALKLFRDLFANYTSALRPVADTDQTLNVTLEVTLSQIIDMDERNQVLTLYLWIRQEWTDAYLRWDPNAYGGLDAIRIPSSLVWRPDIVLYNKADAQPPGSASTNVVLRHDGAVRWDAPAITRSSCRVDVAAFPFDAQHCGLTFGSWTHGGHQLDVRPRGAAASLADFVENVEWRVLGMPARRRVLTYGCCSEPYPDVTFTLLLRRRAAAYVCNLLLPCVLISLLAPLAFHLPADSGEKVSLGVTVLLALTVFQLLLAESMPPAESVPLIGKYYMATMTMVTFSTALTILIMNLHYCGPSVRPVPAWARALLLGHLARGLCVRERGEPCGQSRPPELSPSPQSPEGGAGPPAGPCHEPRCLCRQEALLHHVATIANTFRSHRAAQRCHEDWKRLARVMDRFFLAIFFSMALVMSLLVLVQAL

[3] = molecular target: T2, Neuronal acetylcholine receptor; alpha3/beta4 (Homo sapiens, UniProt P30926+P32297); assay: Inhibition of human alpha3beta4 nAChR; format: protein-complex assay
[4] = molecular target: T3, Neuronal acetylcholine receptor; alpha3/beta2 (Homo sapiens, UniProt P17787+P32297); assay: Inhibition of human alpha3beta2 nAChR; format: protein-complex assay
T3 sequence (P17787 whole entry): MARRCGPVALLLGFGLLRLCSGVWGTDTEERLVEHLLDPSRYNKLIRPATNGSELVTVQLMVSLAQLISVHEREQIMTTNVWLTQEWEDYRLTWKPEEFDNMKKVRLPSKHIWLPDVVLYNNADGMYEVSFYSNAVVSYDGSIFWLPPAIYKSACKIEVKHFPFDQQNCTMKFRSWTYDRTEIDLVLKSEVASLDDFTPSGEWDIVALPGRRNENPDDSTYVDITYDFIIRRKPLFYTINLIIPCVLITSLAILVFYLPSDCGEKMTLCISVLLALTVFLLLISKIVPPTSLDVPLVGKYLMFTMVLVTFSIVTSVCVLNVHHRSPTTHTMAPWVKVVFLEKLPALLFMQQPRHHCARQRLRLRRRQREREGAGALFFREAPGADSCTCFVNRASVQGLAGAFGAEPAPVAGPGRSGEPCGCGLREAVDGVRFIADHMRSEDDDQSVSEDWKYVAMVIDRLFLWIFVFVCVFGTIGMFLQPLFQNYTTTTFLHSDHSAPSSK
T3 sequence (P32297 whole entry): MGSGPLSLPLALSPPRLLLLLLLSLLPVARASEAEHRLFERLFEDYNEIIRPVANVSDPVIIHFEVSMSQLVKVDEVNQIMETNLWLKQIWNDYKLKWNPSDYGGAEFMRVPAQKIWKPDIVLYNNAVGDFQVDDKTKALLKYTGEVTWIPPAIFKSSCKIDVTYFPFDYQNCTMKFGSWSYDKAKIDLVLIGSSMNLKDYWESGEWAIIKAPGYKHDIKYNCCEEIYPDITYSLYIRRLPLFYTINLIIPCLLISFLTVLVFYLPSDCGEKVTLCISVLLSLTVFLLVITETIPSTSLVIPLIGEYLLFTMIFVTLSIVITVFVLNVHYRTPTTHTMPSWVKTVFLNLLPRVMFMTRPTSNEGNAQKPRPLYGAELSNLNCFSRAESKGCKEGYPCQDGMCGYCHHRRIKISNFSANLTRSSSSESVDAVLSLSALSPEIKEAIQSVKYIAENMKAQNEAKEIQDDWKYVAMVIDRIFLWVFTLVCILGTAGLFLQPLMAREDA

[5] = molecular target: T4, Neuronal acetylcholine receptor subunit alpha-7 (Homo sapiens, UniProt P36544); assay: Inhibition of human alpha7 nAChR
T4 sequence (P36544 whole entry): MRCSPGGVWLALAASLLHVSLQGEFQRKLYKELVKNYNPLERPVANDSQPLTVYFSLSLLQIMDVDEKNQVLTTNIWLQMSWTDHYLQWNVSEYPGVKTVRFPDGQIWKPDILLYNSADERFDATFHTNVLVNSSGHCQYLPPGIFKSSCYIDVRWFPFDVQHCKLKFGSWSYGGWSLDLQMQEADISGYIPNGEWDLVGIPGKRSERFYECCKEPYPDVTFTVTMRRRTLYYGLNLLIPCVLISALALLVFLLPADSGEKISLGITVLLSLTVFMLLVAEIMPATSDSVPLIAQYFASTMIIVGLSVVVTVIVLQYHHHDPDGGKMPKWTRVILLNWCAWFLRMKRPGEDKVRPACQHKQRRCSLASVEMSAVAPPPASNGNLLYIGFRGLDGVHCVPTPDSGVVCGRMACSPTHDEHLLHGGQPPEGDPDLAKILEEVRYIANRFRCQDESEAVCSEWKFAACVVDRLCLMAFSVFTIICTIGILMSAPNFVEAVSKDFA

[6] = molecular target: T4, Neuronal acetylcholine receptor subunit alpha-7; assay: Inhibition of alpha7 (unknown origin) nAChR
[7] = molecular target: T1, Neuronal acetylcholine receptor; alpha9/alpha10; assay: Inhibition of alpha9alpha10 (unknown origin) nAChR; format: protein-complex assay
[8] = molecular target: T5, Neuronal acetylcholine receptor; alpha3/beta4 (Rattus norvegicus, UniProt P04757+P12392); assay: Inhibition of rat alpha3beta4 nAChR expressed in Xenopus laevis oocytes assessed as inhibition of ACh-induced current after 2 to 4 days by voltage clamp electrophysiology method; format: cell-based
T5 sequence (P04757 whole entry): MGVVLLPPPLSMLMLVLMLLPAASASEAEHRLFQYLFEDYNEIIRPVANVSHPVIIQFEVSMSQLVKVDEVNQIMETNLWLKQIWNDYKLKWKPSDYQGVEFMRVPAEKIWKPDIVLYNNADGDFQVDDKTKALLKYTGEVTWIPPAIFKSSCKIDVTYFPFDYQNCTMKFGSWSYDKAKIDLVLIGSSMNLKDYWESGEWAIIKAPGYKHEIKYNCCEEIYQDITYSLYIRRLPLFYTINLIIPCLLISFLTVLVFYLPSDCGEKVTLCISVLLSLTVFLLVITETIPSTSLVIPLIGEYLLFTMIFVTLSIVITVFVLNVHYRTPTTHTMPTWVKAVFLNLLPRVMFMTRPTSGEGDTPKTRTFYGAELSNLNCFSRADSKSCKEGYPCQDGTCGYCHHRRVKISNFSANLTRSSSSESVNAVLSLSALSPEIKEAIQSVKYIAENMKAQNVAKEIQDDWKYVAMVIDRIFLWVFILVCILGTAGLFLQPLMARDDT
T5 sequence (P12392 whole entry): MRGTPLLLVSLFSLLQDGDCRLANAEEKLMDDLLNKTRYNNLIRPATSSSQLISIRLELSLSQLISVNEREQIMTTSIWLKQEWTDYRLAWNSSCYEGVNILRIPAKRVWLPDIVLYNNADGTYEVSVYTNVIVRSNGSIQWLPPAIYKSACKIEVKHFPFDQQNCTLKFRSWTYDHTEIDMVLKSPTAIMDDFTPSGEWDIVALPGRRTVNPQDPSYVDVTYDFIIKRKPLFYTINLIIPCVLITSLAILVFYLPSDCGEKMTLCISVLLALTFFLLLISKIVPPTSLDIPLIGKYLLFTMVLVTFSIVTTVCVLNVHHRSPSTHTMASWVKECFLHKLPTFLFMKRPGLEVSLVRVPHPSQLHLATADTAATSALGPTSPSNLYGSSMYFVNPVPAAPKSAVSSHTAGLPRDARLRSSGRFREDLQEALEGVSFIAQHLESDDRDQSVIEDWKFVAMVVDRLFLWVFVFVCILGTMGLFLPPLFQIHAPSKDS

[9] = molecular target: T6, Nicotinic acetylcholine receptor alpha6/alpha3/beta2/beta3 (Rattus norvegicus, UniProt P04757+P12390+P12391+P43143); assay: Inhibition of rat alpha6/alpha3beta2beta3 nAChR expressed in Xenopus laevis oocytes assessed as inhibition of ACh-induced current by voltage clamp electrophysiology method; format: cell-based
T6 sequence (P04757 whole entry): as the sequence (P04757 whole entry) above
T6 sequence (P12390 whole entry): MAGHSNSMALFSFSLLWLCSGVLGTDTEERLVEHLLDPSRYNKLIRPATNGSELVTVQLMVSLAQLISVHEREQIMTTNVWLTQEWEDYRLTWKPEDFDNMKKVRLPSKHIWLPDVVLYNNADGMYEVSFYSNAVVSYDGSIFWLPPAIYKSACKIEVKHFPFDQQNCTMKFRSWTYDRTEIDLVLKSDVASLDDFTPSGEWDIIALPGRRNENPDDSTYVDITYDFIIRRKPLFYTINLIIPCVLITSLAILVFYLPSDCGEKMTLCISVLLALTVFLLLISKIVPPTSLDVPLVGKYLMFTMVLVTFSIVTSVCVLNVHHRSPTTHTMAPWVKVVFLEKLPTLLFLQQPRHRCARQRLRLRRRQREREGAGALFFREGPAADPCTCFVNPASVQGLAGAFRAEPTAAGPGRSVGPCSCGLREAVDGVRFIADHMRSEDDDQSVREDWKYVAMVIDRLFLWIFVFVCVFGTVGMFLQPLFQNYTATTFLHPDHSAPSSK
T6 sequence (P12391 whole entry): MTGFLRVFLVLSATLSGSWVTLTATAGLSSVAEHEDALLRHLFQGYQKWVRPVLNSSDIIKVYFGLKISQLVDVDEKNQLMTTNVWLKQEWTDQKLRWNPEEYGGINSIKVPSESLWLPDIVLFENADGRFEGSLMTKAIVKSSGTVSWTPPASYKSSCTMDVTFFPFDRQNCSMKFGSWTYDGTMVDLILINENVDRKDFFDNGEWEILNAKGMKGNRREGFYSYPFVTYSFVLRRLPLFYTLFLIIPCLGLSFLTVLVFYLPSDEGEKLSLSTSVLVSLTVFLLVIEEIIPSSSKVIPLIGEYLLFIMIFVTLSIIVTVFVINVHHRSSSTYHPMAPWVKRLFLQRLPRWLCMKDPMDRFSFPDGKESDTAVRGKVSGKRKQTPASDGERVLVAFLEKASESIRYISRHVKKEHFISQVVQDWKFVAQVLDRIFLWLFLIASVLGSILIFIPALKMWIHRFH
T6 sequence (P43143 whole entry): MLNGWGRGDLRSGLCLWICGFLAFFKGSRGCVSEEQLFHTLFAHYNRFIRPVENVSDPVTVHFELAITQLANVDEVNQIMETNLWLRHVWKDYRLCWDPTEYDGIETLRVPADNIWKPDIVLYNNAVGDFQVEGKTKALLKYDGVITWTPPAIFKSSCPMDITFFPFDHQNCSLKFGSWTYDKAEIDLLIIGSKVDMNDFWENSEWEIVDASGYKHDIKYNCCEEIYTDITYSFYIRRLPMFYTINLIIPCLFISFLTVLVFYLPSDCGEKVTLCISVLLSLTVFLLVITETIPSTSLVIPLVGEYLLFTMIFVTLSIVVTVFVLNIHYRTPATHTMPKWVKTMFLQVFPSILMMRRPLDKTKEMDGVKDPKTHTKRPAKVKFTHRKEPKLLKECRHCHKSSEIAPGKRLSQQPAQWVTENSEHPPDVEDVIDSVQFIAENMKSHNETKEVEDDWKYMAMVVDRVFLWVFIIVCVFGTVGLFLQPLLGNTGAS

[10] = molecular target: Neuronal acetylcholine receptor; alpha9/alpha10 (Homo sapiens) (UniProt Q9UGM1+Q9GZZ6); assay: Inhibition of alpha9alpha10 nAChR (unknown origin) expressed in Xenopus laevis oocytes at 1 uM by voltage clamp electrophysiology method; format: cell-based
[11] = molecular target: T4, Neuronal acetylcholine receptor subunit alpha-7; assay: Inhibition of alpha7 nAChR (unknown origin) expressed in Xenopus laevis oocytes at 1 uM by two-electrode voltage clamp method; format: cell-based
[12] = molecular target: T2, Neuronal acetylcholine receptor; alpha3/beta4; assay: Inhibition of alpha3beta4 nAChR (unknown origin) expressed in Xenopus laevis oocytes at 1uM by two-electrode voltage clamp method; format: cell-based
[13] = molecular target: T3, Neuronal acetylcholine receptor; alpha3/beta2; assay: Inhibition of alpha3beta2 nAChR (unknown origin) expressed in Xenopus laevis oocytes at 1uM by two-electrode voltage clamp method; format: cell-based
[14] = molecular target: T4, Neuronal acetylcholine receptor subunit alpha-7; assay: Inhibition of alpha7 nAChR (unknown origin) expressed in Xenopus laevis oocytes by two-electrode voltage clamp method; format: cell-based
[15] = molecular target: T2, Neuronal acetylcholine receptor; alpha3/beta4; assay: Inhibition of alpha3beta4 nAChR (unknown origin) expressed in Xenopus laevis oocytes by two-electrode voltage clamp method; format: cell-based
[16] = molecular target: T3, Neuronal acetylcholine receptor; alpha3/beta2; assay: Inhibition of alpha3beta2 nAChR (unknown origin) expressed in Xenopus laevis oocytes by two-electrode voltage clamp method; format: cell-based
[17] = molecular target: Nicotinic acetylcholine receptor alpha9/alpha10 (Rattus norvegicus) (UniProt P43144+Q9JLB5); assay: Inhibition of rat alpha9alpha10 nAChR expressed in Xenopus laevis oocytes assessed as inhibition of ACh-induced current at 10 uM after 2 to 4 days by voltage clamp electrophysiology method; format: cell-based
[18] = molecular target: Neuronal acetylcholine receptor subunit alpha-7 (Rattus norvegicus) (UniProt Q05941); assay: Inhibition of rat alpha7 nAChR expressed in Xenopus laevis assessed as inhibition of ACh-induced current at 10 uM after 2 to 4 days by voltage clamp electrophysiology method
[19] = molecular target: Neuronal acetylcholine receptor; alpha4/beta4 (Rattus norvegicus) (UniProt P09483+P12392); assay: Inhibition of rat alpha4beta4 nAChR expressed in Xenopus laevis oocytes assessed as inhibition of ACh-induced current at 10 uM after 2 to 4 days by voltage clamp electrophysiology method; format: cell-based
[20] = molecular target: Neuronal acetylcholine receptor; alpha3/beta2 (Rattus norvegicus) (UniProt P04757+P12390); assay: Inhibition of rat alpha3beta2 nAChR expressed in Xenopus laevis oocytes assessed as inhibition of ACh-induced current at 10 uM after 2 to 4 days by voltage clamp electrophysiology method; format: cell-based
[21] = molecular target: Neuronal acetylcholine receptor; alpha3/beta4 (Rattus norvegicus) (UniProt P04757+P12392); assay: Inhibition of rat alpha3beta4 nAChR expressed in Xenopus laevis oocytes assessed as inhibition of ACh-induced current at 1 uM after 2 to 4 days by voltage clamp electrophysiology method; format: cell-based
[22] = molecular target: Neuronal acetylcholine receptor; alpha2/beta2 (Rattus norvegicus, UniProt P12389+P12390); assay: Inhibition of rat alpha2beta2 nAChR expressed in Xenopus oocytes assessed as inhibition of ACh-induced current by voltage clamp electrophysiology method; format: cell-based
[23] = molecular target: Neuronal acetylcholine receptor subunit alpha-7 (Rattus norvegicus, UniProt Q05941); assay: Inhibition of rat alpha7 nAChR expressed in Xenopus oocytes assessed as inhibition of ACh-induced current by voltage clamp electrophysiology method; format: cell-based
[24] = molecular target: Neuronal acetylcholine receptor; alpha2/beta4 (Rattus norvegicus, UniProt P12389+P12392); assay: Inhibition of rat alpha2beta4 nAChR expressed in Xenopus oocytes assessed as inhibition of ACh-induced current by voltage clamp electrophysiology method; format: cell-based
[25] = molecular target: Neuronal acetylcholine receptor; alpha4/beta4 (Rattus norvegicus, UniProt P09483+P12392); assay: Inhibition of rat alpha4beta4 nAChR expressed in Xenopus oocytes assessed as inhibition of ACh-induced current by voltage clamp electrophysiology method; format: cell-based
[26] = molecular target: T5, Neuronal acetylcholine receptor; alpha3/beta4; assay: Inhibition of rat alpha3beta4 nAChR expressed in Xenopus oocytes assessed as inhibition of ACh-induced current by voltage clamp electrophysiology method; format: cell-based
[27] = molecular target: Neuronal acetylcholine receptor; alpha3/beta2 (Rattus norvegicus, UniProt P04757+P12390); assay: Inhibition of rat alpha3beta2 nAChR expressed in Xenopus oocytes assessed as inhibition of ACh-induced current by voltage clamp electrophysiology method; format: cell-based
[28] = molecular target: Nicotinic acetylcholine receptor alpha6/alpha3/beta4 (Rattus norvegicus, UniProt P04757+P12392+P43143); assay: Inhibition of rat alpha6/alpha3beta4 nAChR expressed in Xenopus oocytes assessed as inhibition of ACh-induced current by voltage clamp electrophysiology method; format: cell-based
[29] = molecular target: T6, Nicotinic acetylcholine receptor alpha6/alpha3/beta2/beta3; assay: Inhibition of rat alpha6/alpha3beta2beta3 nAChR expressed in Xenopus oocytes assessed as inhibition of ACh-induced current by voltage clamp electrophysiology method; format: cell-based

Structure (SMILES): CC(C)C[C@@H]1NC(=O)[C@H](CCC(=O)O)NC(=O)[C@@H]2CCCN2C(=O)[C@H](Cc2cnc[nH]2)NC(=O)[C@H](CC(N)=O)NC(=O)[C@H](C(C)C)NC(=O)[C@H](CO)NC(=O)[C@@H]2CSSC[C@H](NC(=O)CN)C(=O)N[C@@H](CSSC[C@@H](C(N)=O)NC1=O)C(=O)N[C@@H](CO)C(=O)N[C@@H](Cc1cnc[nH]1)C(=O)N1CCC[C@H]1C(=O)N[C@@H](C)C(=O)N2 (HELM PEPTIDE1{G.C.C.S.H.P.A.C.S.V.N.H.P.E.L.C.[am]}$PEPTIDE1,PEPTIDE1,2:R3-8:R3|PEPTIDE1,PEPTIDE1,3:R3-16:R3$$$V2.0)
- IC50 [1]: 6.9 nM

Structure (SMILES): C[C@@H]1NC(=O)[C@@H]2CSSC[C@H](NC(=O)CN)C(=O)N[C@@H](CSSC[C@@H](C(N)=O)NC(=O)[C@H](CCCNC(=N)N)NC(=O)[C@H](Cc3c[nH]c4ccccc34)NC1=O)C(=O)N[C@@H](CO)C(=O)N[C@@H](CC(=O)O)C(=O)N1CCC[C@H]1C(=O)N[C@@H](CCCNC(=N)N)C(=O)N2
- IC50 [2]: 2000 nM
- IC50 [3]: 3390 nM
- IC50 [4]: 41 nM
- IC50 [5]: 595 nM

Structure (SMILES): NCC(=O)N[C@H]1CSSC[C@@H]2NC(=O)[C@H](CCCN=C(N)N)NC(=O)[C@@H]3CCCN3C(=O)[C@H](CC(=O)O)NC(=O)[C@H](CO)NC(=O)[C@H](CSSC[C@@H](C(=O)N[C@@H](CCCN=C(N)N)C(N)=O)NC(=O)[C@H](CCCN=C(N)N)NC(=O)[C@H](Cc3ccc(O)cc3)NC(=O)[C@H](CCCN=C(N)N)NC2=O)NC1=O
- IC50 [6]: 4700 nM
- IC50 [7]: 5.2 nM

Structure (SMILES): C[C@@H]1NC(=O)[C@H](Cc2ccccc2)NC(=O)[C@@H]2CSSC[C@@H](NC(=O)CN)C(=O)N[C@@H](CSSC[C@@H](C(N)=O)NC(=O)[C@H](CC(=O)O)NC(=O)[C@@H]3CCCN3C(=O)[C@H](CC(N)=O)NC(=O)[C@H]([C@@H](C)O)NC1=O)C(=O)N[C@@H](CO)C(=O)N[C@@H](Cc1ccc(O)cc1)C(=O)N1CCC[C@H]1C(=O)N1CCC[C@H]1C(=O)N2
- IC50 [8]: 750 nM

Structure (SMILES): [H][C@@]12CCCN1C(=O)[C@H](Cc1cnc[nH]1)NC(=O)[C@H](CCCCN)NC(=O)[C@H](CC(N)=O)NC(=O)[C@H](CCCNC(=N)N)NC(=O)[C@]1([H])CSSC[C@H](NC(=O)CN)C(=O)N[C@@]([H])(CSSC[C@@H](C(N)=O)NC(=O)[C@H](CC(C)C)NC(=O)[C@H](CC(=O)O)NC2=O)C(=O)N[C@@H](CO)C(=O)N[C@@H](CC(=O)O)C(=O)N2CCC[C@@]2([H])C(=O)N2CCC[C@@]2([H])C(=O)N1 (HELM PEPTIDE1{G.C.C.S.D.P.P.C.R.N.K.H.P.D.L.C.[am]}$PEPTIDE1,PEPTIDE1,2:R3-8:R3|PEPTIDE1,PEPTIDE1,3:R3-16:R3$$$V2.0)
- IC50 [9]: 28.4 nM

Structure (SMILES): CC[C@H](C)[C@@H]1NC(=O)[C@H](Cc2cnc[nH]2)NC(=O)[C@@H]2CCCN2C(=O)[C@H](CC(N)=O)NC(=O)[C@H](CC(N)=O)NC(=O)[C@H](C(C)C)NC(=O)[C@H](CC(N)=O)NC(=O)[C@@H]2CSSC[C@H](NC(=O)CN)C(=O)N[C@@H](CSSC[C@@H](C(N)=O)NC1=O)C(=O)N[C@@H](CO)C(=O)N[C@@H](Cc1cnc[nH]1)C(=O)N1CCC[C@H]1C(=O)N[C@@H](C)C(=O)N2 (HELM PEPTIDE1{G.C.C.S.H.P.A.C.N.V.N.N.P.H.I.C.[am]}$PEPTIDE1,PEPTIDE1,2:R3-8:R3|PEPTIDE1,PEPTIDE1,3:R3-16:R3$$$V2.0)
- inhibition [10]: 22%
- inhibition [11]: Active
- inhibition [12]: Active
- inhibition [13]: Active
- IC50 [14]: 103 nM
- IC50 [15]: 97 nM
- IC50 [16]: 33 nM

Structure (SMILES): CC[C@H](C)[C@@H]1NC(=O)[C@@H]2CCCN2C(=O)[C@H](CO)NC(=O)[C@H](CCSC)NC(=O)[C@H](C)NC(=O)[C@H](CO)NC(=O)[C@@H]2CSSC[C@H](NC(=O)CN)C(=O)N[C@@H](CSSC[C@@H](C(N)=O)NC1=O)C(=O)N[C@@H](CO)C(=O)N[C@@H](Cc1cnc[nH]1)C(=O)N1CCC[C@H]1C(=O)N[C@@H](C(C)C)C(=O)N2
- inhibition [17]: inactive
- inhibition [18]: inactive
- inhibition [19]: inactive
- inhibition [20]: inactive
- inhibition [21]: Active

Structure (SMILES): [H][C@@]12CCCN1C(=O)[C@]1([H])CCCN1C(=O)[C@]([H])([C@@H](C)O)NC(=O)[C@H](CO)NC(=O)[C@]1([H])CSSC[C@@H](C(N)=O)NC(=O)[C@H](Cc3ccc(O)cc3)NC(=O)[C@H](CC(C)C)NC(=O)[C@H](C(C)C)NC(=O)[C@H](C)NC(=O)[C@]([H])(CSSC[C@H](NC(=O)CN)C(=O)N1)NC2=O (HELM PEPTIDE1{G.C.C.S.T.P.P.C.A.V.L.Y.C.[am]}$PEPTIDE1,PEPTIDE1,2:R3-8:R3|PEPTIDE1,PEPTIDE1,3:R3-13:R3$$$V2.0)
- IC50 [22]: 800 nM
- IC50 [23]: 272 nM
- IC50 [24]: 121 nM
- IC50 [25]: 69.9 nM
- IC50 [26]: 27.7 nM
- IC50 [27]: 5.72 nM
- IC50 [28]: 1.54 nM
- IC50 [29]: 0.26 nM
